Source: patent publication US8063008B2, “Enzymatic production of peracids using perhydrolytic enzymes” (E. I. du Pont de Nemours and Company, priority 2005, dated 2011)
Where “and” joins values, the source holds several entries; their conditions need not be identical. Identical values can stand only once. Like-named read-outs stand apart in the source and are kept apart here.

Tests used:
[1] = Enzymatic perhydrolysis of propyl acetate at pH 6.5 (Example 11, comparative); type: biochemical; settings: pH 6.5, 2 mg enzyme
Procedure: Into a 4-mL glass vial with stir bar was added 2 mg of one of the following enzymes: acetylcholinesterase (Sigma, C-2888), Lipase G “Amano” 50 (Amano), or Chirazyme L2, lyo. (C. antartica lipase B, BioCatalytics) dissolved in 0.050 mL of 50 mM potassium phosphate buffer (pH 6.5). To the vial was then added either a) 0.930 mL of a solution containing 50 mM potassium phosphate buffer (pH 6.5) and 215 mM propyl acetate, followed by 0.021 mL 30% hydrogen peroxide (200 mM final hydrogen peroxide concentration) or b) 0.900 mL of a solution containing 278 mM triacetin in 50 mM potassium phosphate buffer (pH 6.5), 0.024 mL of 50 mM potassium phosphate buffer (pH 6.5), and 0.026 mL 30% hydrogen peroxide (250 mM final concentration). […] A portion of the resulting filtrate was diluted 1:10 with dd water and analyzed for hydrogen peroxide, and the remaining portion of the filtrate was directly analyzed for peracid using the HPLC assay method (Table 12).

[2] = Protease-catalyzed perhydrolysis of triacetin at pH 6.5 (Example 8); type: biochemical; settings: pH 6.5, 500 mM H2O2, 1 mg protease
Procedure: The analytical procedure described by U. Karst et al. (Anal. Chem., 69 (17):3623-3627 (1997)) was employed, as described herein, for analysis of product mixtures containing peracid and hydrogen peroxide. Briefly, the concentration of peracetic acid (PAA) in analyzed samples ranged from 0.025 mM-10 mM, and the concentration of H2O2 ranged from 0.075 mM-3 mM. Reaction mixtures containing peracid and/or hydrogen peroxide were, if necessary prior to analysis, diluted to produce a concentration of peracid or peroxide in these ranges. Into a 4-mL vial was placed 0.100 mL of 20 mM methyl p-tolyl sulfide (MTS) in acetonitrile, 0.300 mL of distilled and deionized water (dd) and 0.100 mL of sample solution (undiluted or diluted with dd water by a factor of up to 1:25 for analysis of peracid), or 0.100 mL of 20 mM MTS in acetonitrile and 0.390 mL of dd water were added to 0.010 mL of a 1:10 dilution of sample solution (for analysis of hydrogen peroxide). After a reaction time of 10 minutes (in the dark, with no stirring), 0.400 mL CH3CN and 0.100 mL of 40-mM triphenylphosphine (TPP) in CH3CN were added to start the second derivatization reaction for detection of peroxide. The solution was left standing in the dark for 30 min to complete the assay reaction. At the end of 30 minutes, 0.100 mL of 10 mM N,N-diethyl-m-toluamide (DEET, HPLC external standard) was added and the resulting solution analyzed by HPLC: Supelco Discovery C8 10-cm column with pre-column, 10-μL injection, UV detection at 225 nm, solvent A: acetonitrile, solvent B: deionized water, 1 mL/min gradient as follows: […]
Into a 4-mL glass vial with stir bar was added 1 mg protease (Table 6) in 0.050 mL of 50 mM sodium phosphate buffer (pH 6.5), 0.900 mL of an aqueous mixture containing triacetin (278 mM) in 50 mM phosphate buffer (pH 6.5), and 0.052 mL 30% hydrogen peroxide (500 mM final concentration). After stirring for 5 or 30 minutes at 22° C., a 0.250 mL sample was filtered using a 30,000 NMWL filter (Millipore UltraFree-MC) centrifuged for 2 minute at 12,000 RPM. A portion of the filtered reaction samples was diluted 1:10 with dd water and analyzed for hydrogen peroxide, and the remaining portion of the sample was directly analyzed for peracid using the HPLC assay method (Table 9).

[3] = Protease-catalyzed perhydrolysis of diacetamide at pH 4.0 (Example 6); type: biochemical; settings: pH 4.0, 500 mM H2O2, 1 mg protease
Procedure: (§1) Into a 4-mL glass vial with stir bar was added 1 mg protease (Table 6) in 0.050 mL of 50 mM sodium acetate/acetic acid buffer (pH 4.0), 0.900 mL of an aqueous mixture containing either a) acetamide (278 mM) in 50 mM sodium acetate/acetic acid buffer (pH 4.0) or b) diacetamide (278 mM) in 50 mM sodium acetate/acetic acid buffer (pH 4.0), and 0.052 mL 30% hydrogen peroxide (500 mM final concentration). […] A portion of the filtered reaction samples was diluted 1:10 with dd water and analyzed for hydrogen peroxide, and the remaining portion of the sample was directly analyzed for peracid using the HPLC assay method (Table 7).

[4] = Protease-catalyzed perhydrolysis of acetamide at pH 6.5 (Example 9); type: biochemical; settings: pH 6.5, 500 mM H2O2, 1 mg protease
Procedure: as §1, with “potassium phosphate” for “sodium acetate/acetic acid”, “6.5),” for “4.0),”, “6.5)” for “4.0)”, “10).” for “7).”

[5] = Protease-catalyzed perhydrolysis of diacetamide at pH 6.5 (Example 9); type: biochemical; settings: pH 6.5, 500 mM H2O2, 1 mg protease
Procedure: as §1, with “potassium phosphate” for “sodium acetate/acetic acid”, “6.5),” for “4.0),”, “6.5)” for “4.0)”, “10).” for “7).”

[6] = Protease-catalyzed perhydrolysis of acetamide at pH 4.0 (Example 6); type: biochemical; settings: pH 4.0, 500 mM H2O2, 1 mg protease
Procedure: as §1

[7] = Protease-catalyzed perhydrolysis of triacetin at pH 4.0 (Example 7); type: biochemical; settings: pH 4.0, 500 mM H2O2, 1 mg protease
Procedure: as §1, with “triacetin” for “either a) acetamide (278 mM) in 50 mM sodium acetate/acetic acid buffer (pH 4.0) or b) diacetamide”, “8).” for “7).”

E. coli ATCC 11229 = assay: Determination of Minimum Biocidal Concentration (MBC), XTT reduction inhibition (Example 21); type: cell-based; settings: for replicate OD (450 nm): replicates 1-8
Description: The method described by J. Gabrielson, et al. (J. Microbiol. Methods 50: 63-73 (2002)) was employed for determination of the Minimum Biocidal Concentration (MBC) of peracids, or for determination of the MBC of hydrogen peroxide and enzyme substrates. The assay method is based on XTT reduction inhibition, where XTT ((2,3-bis[2-methoxy-4-nitro-5-sulfophenyl]-5-[(phenylamino)carbonyl]-2H-tetrazolium, inner salt, monosodium salt) is a redox dye that indicates microbial respiratory activity by a change in optical density (OD) measured at 490 nm or 450 nm. However, there are a variety of other methods available for testing the activity of disinfectants and antiseptics including, but not limited to viable plate counts, direct microscopic counts, dry weight, turbidity measurements, absorbance, and bioluminescence (see, for example Brock, Semour S., Disinfection, Sterilization, and Preservation, 5th edition, Lippincott Williams & Wilkins, Philadelphia, Pa., USA; 2001).
The filtered enzyme-generated product mixture was diluted 1:5 with sterile water, and the resulting solution was further diluted with sterile water in four 1:1 serial dilutions to obtain the concentrations of PAA and hydrogen peroxide listed in Table 22.
The 1:5 dilution and four serial dilutions were evaluated for biocidal activity by mixing 0.100 mL of the PAA-containing solution with 0.100 mL of an inoculum containing 2.7×10^6 CFU/mL of E. coli ATCC 11229 (American Type Culture Collection, Manassas, Va.) in Millers LB broth diluted with Butterfield Buffer; eight replicates of each mixture were contained in individual wells of a sterile 96-well microtiter plate. After the resulting cell suspensions were allowed to stand for 10 minutes at room temperature, they were tested for viability using the growth indicator XTT (2,3-bis[2-methoxy-4-nitro-5-sulfophenyl]-5-[(phenylamino)carbonyl]-2H-tetrazolium, inner salt, monosodium salt; CAS RN 111072-31-2) according to the method of Gabrielson et al. (J. Microbiol. Methods, 50:63-73 (2002)).
Separately, the cell inoculum was treated with sterile solutions of triacetin (Table 24) or hydrogen peroxide in 50 mM phosphate buffer (pH 6.5) (Table 25) at the concentrations present in each of the biocide dilutions in Table 23 to determine the MBC for these components of the biocide solution.

[8] = target: protease subtilisin from Bacillus amyloliquefaciens (Bacillus amyloliquefaciens, UniProt P00782); settings: cited from earlier work
Sequence of protease subtilisin from Bacillus amyloliquefaciens (P00782 108-382): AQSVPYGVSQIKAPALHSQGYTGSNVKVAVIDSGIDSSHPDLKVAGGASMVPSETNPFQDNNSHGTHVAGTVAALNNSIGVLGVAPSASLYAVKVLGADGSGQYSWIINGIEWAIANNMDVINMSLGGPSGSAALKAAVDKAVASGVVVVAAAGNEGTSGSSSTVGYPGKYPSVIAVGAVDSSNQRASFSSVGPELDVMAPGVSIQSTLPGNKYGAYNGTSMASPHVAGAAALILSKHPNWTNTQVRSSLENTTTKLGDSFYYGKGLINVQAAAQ

[9] = Enzymatic perhydrolysis of triacetin using a combination of lipase and Neutrase at pH 4.0 and 6.5 (Example 24); type: biochemical; settings: triacetin 250 mM, H2O2 500 mM, 22° C.
Procedure: Reaction mixtures were prepared containing 1 mg lipase (A “Amano” 12 (Amano), Validase AN (Valley Research), or ICR-110 (BioCatalytics)), and 20 μL Neutrase® (Novozymes) in 1.0 mL of 50 mM buffer (either sodium acetate/acetic acid buffer at pH 4.0, or potassium phosphate buffer at pH 6.5), additionally containing triacetin (250 mM) and hydrogen peroxide (500 mM). […] A portion of the filtered reaction samples was diluted 1:10 with dd water and analyzed for hydrogen peroxide, and the remaining portion of the sample was directly analyzed for peracid using the HPLC assay method (Table 29). Reactions were also run with lipase alone or Neutrase® alone for comparison of peracetic acid concentrations produced without the combination of lipase and Neutrase®.

[10] = Enzymatic perhydrolysis of a mixture of diacetin (250 mM), triacetin (88 mM) and monoacetin (192 mM) using lipase and Neutrase at pH 4.0 and 6.5 (Example 25); type: biochemical; settings: monoacetin 192 mM, H2O2 500 mM, 22° C.
Procedure: Reaction mixtures were prepared containing 1 mg lipase (A “Amano” 12 (Amano), Validase AN (Valley Research), or ICR-110 (BioCatalytics)), and 20 μL Neutrase® (Novozymes) in 1.0 mL of 50 mM buffer (either sodium acetate/acetic acid buffer at pH 4.0, or potassium phosphate buffer at pH 6.5), additionally containing a mixture of diacetin (250 mM), triacetin (88 mM) and monoacetin (192 mM) and hydrogen peroxide (500 mM). After stirring for 5 or 30 minutes at 22° C., a 0.250-mL sample was filtered using a 30,000 NMWL filter (Millipore UltraFree-MC) centrifuged for 2 minutes at 12,000 RPM. A portion of the filtered reaction samples was diluted 1:10 with dd water and analyzed for hydrogen peroxide, and the remaining portion of the sample was directly analyzed for peracid using the HPLC assay method (Table 30). Reactions were also run with lipase alone or Neutrase® alone for comparison of peracetic acid concentrations produced without the combination of lipase and Neutrase®.

acetyl cholinesterase
propyl acetate (200 mM), H2O2 (200 mM) peracetic acid (ppm), 5 min ([1]; 5 min): 0 ppm | propyl acetate (200 mM), H2O2 (200 mM) peracetic acid (ppm), 30 min ([1]; 30 min): 0 ppm

Chymopapain: Chymopapain, papaya latex, Sigma C8526
triacetin (250 mM) peracetic acid (ppm), 5 min ([2]; 5 min): 69 ppm | triacetin (250 mM) peracetic acid (ppm), 30 min ([2]; 30 min): 167 ppm | diacetamide (250 mM) peracetic acid (ppm), 5 min ([3]; 5 min): 100 ppm | diacetamide (250 mM) peracetic acid (ppm), 30 min ([3]; 30 min): 131 ppm | acetamide (250 mM) peracetic acid (ppm), 5 min ([4]; 5 min): 94 ppm | acetamide (250 mM) peracetic acid (ppm), 30 min ([4]; 30 min): 12 ppm | diacetamide (250 mM) peracetic acid (ppm), 5 min ([5]; 5 min): 218 ppm | diacetamide (250 mM) peracetic acid (ppm), 30 min ([5]; 30 min): 170 ppm | acetamide (250 mM) peracetic acid (ppm), 5 min ([6]; 5 min): 66 ppm | acetamide (250 mM) peracetic acid (ppm), 30 min ([6]; 30 min): 65 ppm | triacetin (250 mM) peracetic acid (ppm), 5 min ([7]; 5 min): 72 ppm | triacetin (250 mM) peracetic acid (ppm), 30 min ([7]; 30 min): 57 ppm

OO [Hydrogen Peroxide, hydrogen peroxide]
MBC (E. coli ATCC 11229; Escherichia coli, ATCC11229, 10 min, E. coli ATCC 11229, 1.35×10^6 CFU/mL, 10 minutes at room temperature, XTT, six-log kill, read-out: Minimum Biocidal Concentration (MBC)): > 170 µg/mL | blank-corrected mean OD (E. coli ATCC 11229; H2O2 42.5 ppm): 1.710 | mean replicate OD (450 nm) (E. coli ATCC 11229; H2O2 42.5 ppm): 2.134 | replicate OD (450 nm) (E. coli ATCC 11229; H2O2 42.5 ppm): 2.007 and 2.027 and 1.971 and 2.117 and 2.666 and 2.170 and 2.082 and 2.034 | blank-corrected mean OD (E. coli ATCC 11229; H2O2 85.1 ppm): 1.466 | mean replicate OD (450 nm) (E. coli ATCC 11229; H2O2 85.1 ppm): 1.890 | replicate OD (450 nm) (E. coli ATCC 11229; H2O2 85.1 ppm): 1.889 and 1.815 and 1.795 and 1.962 and 2.153 and 1.880 and 1.793 and 1.834 | blank-corrected mean OD (E. coli ATCC 11229; H2O2 170.1 ppm): 0.005 | mean replicate OD (450 nm) (E. coli ATCC 11229; H2O2 170.1 ppm): 0.4295 | replicate OD (450 nm) (E. coli ATCC 11229; H2O2 170.1 ppm): 0.435 and 0.402 and 0.424 and 0.462 and 0.414 and 0.401 and 0.422 and 0.470 | blank-corrected mean OD (E. coli ATCC 11229; H2O2 340.2 ppm): 0.009 | mean replicate OD (450 nm) (E. coli ATCC 11229; H2O2 340.2 ppm): 0.433 | replicate OD (450 nm) (E. coli ATCC 11229; H2O2 340.2 ppm): 0.423 and 0.439 and 0.425 and 0.432 and 0.452 and 0.440 and 0.428 and 0.424 | blank-corrected mean OD (E. coli ATCC 11229; H2O2 680.5 ppm): 0.016 | mean replicate OD (450 nm) (E. coli ATCC 11229; H2O2 680.5 ppm): 0.440 | replicate OD (450 nm) (E. coli ATCC 11229; H2O2 680.5 ppm): 0.433 and 0.440 and 0.426 and 0.430 and 0.453 and 0.456 and 0.436 and 0.446 | inactivation of the protease subtilisin ([8]; 0.1 M hydrogen peroxide, in less than 6 minutes): > 80% | inactivation of the protease subtilisin ([8]; 1.0 M hydrogen peroxide, in less than 4 minutes): > 80%

Neutrase ®: Novozymes; a neutral protease from Bacillus amyloliquefaciens
peracetic acid (ppm), 5 min ([9]; pH 4.0): 0 ppm | peracetic acid (ppm), 30 min ([9]; pH 4.0): 0 ppm | peracetic acid (ppm), 5 min ([9]; pH 6.5): 110 ppm | peracetic acid (ppm), 30 min ([9]; pH 6.5): 300 ppm | peracetic acid (ppm), 5 min ([10]; pH 4.0, 5 min): 50 ppm | peracetic acid (ppm), 30 min ([10]; pH 4.0, 30 min): 110 ppm | peracetic acid (ppm), 5 min ([10]; pH 6.5, 5 min): 50 ppm | peracetic acid (ppm), 30 min ([10]; pH 6.5, 30 min): 110 ppm
